In US11535629B2, “Dioxoloisoquinolinone derivatives and use thereof” (HANMI PHARMACEUTICAL CO., LTD., priority 2020, dated 2022) one finds GI50 data, which are given here for 21 compounds.

Like-named read-outs stand apart in the source and are kept apart here.

For the assay, the system named is KARPAS-422 cells. Put plainly: Cell growth inhibition test (CTG method). In kind it is cell-based. To be noted: KARPAS-422 (EZH2^Y641N mutant), culturing for 7 days, read-out: Cell growth inhibitory activity (GI50, nM) KARPAS-422 (EZH2^Y641N mutant). The protocol:
The cultured cell strain was prepared at 1.8×10^4 cells/400 μL and placed in a 48-well plate.

Where [1] appears, read: Homo sapiens, KARPAS-422, 168 h.

On to `Cc1cc(C)c(CN2CCc3c(c(C)c4c(c3-c3cnn(C)c3)O[C@@](C)([C@H]3CC[C@H](N(C)C)CC3)O4)C2=O)c(=O)[nH]1` [Compound 39, (S)-6-((4,6-dimethyl-2-oxo-1,2-dihydropyridin-3-yl)methyl)-2-(trans-4-(dimethylamino)cyclohexyl)-2,4-dimethyl-9-(1-methyl-1H-pyrazol-4-yl)-7,8-dihydro-[1,3]dioxolo[4,5-g]isoquinolin-5(6H)-one], for which the GI50 (commonly the concentration at which growth is held to half of that of the control) under setting [1] is more than 1000 nM.

Turning to `Cc1cc(C)c(CN2CCc3c(c(C)c4c(c3-c3ccc(C)o3)O[C@@](C)([C@H]3CC[C@H](N(C)C)CC3)O4)C2=O)c(=O)[nH]1` [Compound 41, (S)-6-((4,6-dimethyl-2-oxo-1,2-dihydropyridin-3-yl)methyl)-2-(trans-4-(dimethylamino)cyclohexyl)-2,4-dimethyl-9-(5-methylfuran-2-yl)-7,8-dihydro-[1,3]dioxolo[4,5-g]isoquinolin-5(6H)-one], the GI50 under setting [1] was more than 1000 nM.

For the compound `CSc1cc(C)[nH]c(=O)c1CN1CCc2c(Cl)c3c(c(C)c2C1=O)OC(C)(C12CCC(N(C)C)(CC1)CC2)O3` (single isomer, unassigned) [Compound 9, 9-chloro-2-(4-(dimethylamino)bicyclo[2.2.2]octan-1-yl)-2,4-dimethyl-6-((6-methyl-4-(methylthio)-2-oxo-1,2-dihydropyridin-3-yl)methyl)-7,8-dihydro[1,3]dioxolo[4,5-g]isoquinolin-5(6H)-one], the GI50 was 100 to 1000 nM.

As to `COc1cc(C)[nH]c(=O)c1CN1CCc2c(Cl)c3c(c(C)c2C1=O)OC(C)(C12CCC(N(C)C)(CC1)CC2)O3` (single isomer, unassigned) [Compound 6, 9-chloro-2-(4-(dimethylamino)bicyclo[2.2.2]octan-1-yl)-6-((4-methoxy-6-methyl-2-oxo-1,2-dihydropyridin-3-yl)methyl)-2,4-dimethyl-7,8-dihydro[1,3]dioxolo[4,5-g]isoquinolin-5(6H)-one], the GI50 was more than 1000 nM.

`Cc1cc(C)c(CN2CCc3c(c(C)c4c(c3-c3ccc(F)nc3)O[C@@](C)([C@H]3CC[C@H](N(C)C)CC3)O4)C2=O)c(=O)[nH]1` [Compound 37, (S)-6-((4,6-dimethyl-2-oxo-1,2-dihydropyridin-3-yl)methyl)-2-(trans-4-(dimethylamino)cyclohexyl)-9-(6-fluoropyridin-3-yl)-2,4-dimethyl-7,8-dihydro-[1,3]dioxolo[4,5-g]isoquinolin-5(6H)-on]: the GI50 under setting [1] was more than 1000 nM.

As to `Cc1cc(C)c(CN2CCc3c(c(C)c4c(c3-c3cnn(C)c3)O[C@](C)([C@H]3CC[C@H](N(C)C)CC3)O4)C2=O)c(=O)[nH]1` [Compound 38, (R)-6-((4,6-dimethyl-2-oxo-1,2-dihydropyridin-3-yl)methyl)-2-(trans-4-(dimethylamino)cyclohexyl)-2,4-dimethyl-9-(1-methyl-1H-pyrazol-4-yl)-7,8-dihydro-[1,3]dioxolo[4,5-g]isoquinolin-5(6H)-on], under setting [1], the GI50 amounted to 5.8 nM.

For `Cc1cc(C)c(CNC(=O)c2cc(Cl)c3c(c2C)O[C@@](C)([C@H]2CC[C@H](N(C)C)CC2)O3)c(=O)[nH]1` [Control B, (2R)-7-chloro-2-[trans-4-(dimethylamino)cyclohexyl]-N-[(4,6-dimethyl-2-oxo-1,2-dihydropyridin-3-yl)methyl]-2,4-dimethyl-1,3-benzodioxole-5-carboxamide, reference compound], under setting [1], the GI50 was in the range of 1.3 to 15 nM.

For `Cc1cc(C)c(CN2CCc3c(c(C)c4c(c3-c3ccc(C)s3)O[C@](C)([C@H]3CC[C@H](N(C)C)CC3)O4)C2=O)c(=O)[nH]1` [Compound 42, (R)-6-((4,6-dimethyl-2-oxo-1,2-dihydropyridin-3-yl)methyl)-2-(trans-4-(dimethylamino)cyclohexyl)-2,4-dimethyl-9-(5-methylthiophen-2-yl)-7,8-dihydro-[1,3]dioxolo[4,5-g]isoquinolin-5(6H)-one], the GI50 under setting [1] turned out to be 5.7 nM.

`CN[C@H]1CC[C@H]([C@@]2(C)Oc3c(C)c4c(c(-c5ccco5)c3O2)CCN(Cc2c(C)cc(C)[nH]c2=O)C4=O)CC1` [Compound 61, (S)-6-((4,6-dimethyl-2-oxo-1,2-dihydropyridin-3-yl)methyl)-9-(furan-2-yl)-2,4-dimethyl-2-(trans-4-(methylamino)cyclohexyl)-7,8-dihydro-[1,3]dioxolo[4,5-g]isoquinolin-5(6H)-one]: the GI50 under setting [1] is more than 1000 nM.

With `Cc1cc(C)c(CN2CCc3c(c(C)c4c(c3-c3ccncc3)O[C@@](C)([C@H]3CC[C@H](N(C)C)CC3)O4)C2=O)c(=O)[nH]1` [Compound 35, (S)-6-((4,6-dimethyl-2-oxo-1,2-dihydropyridin-3-yl)methyl)-2-(trans-4-(dimethylamino)cyclohexyl)-2,4-dimethyl-9-(pyridin-4-yl)-7,8-dihydro-[1,3]dioxolo[4,5-g]isoquinolin-5(6H)-one], the GI50 under setting [1] was more than 1000 nM.

On to `Cc1cc(C)c(CN2CCc3c(c(C)c4c(c3-c3ccco3)O[C@](C)([C@H]3CC[C@H](N)CC3)O4)C2=O)c(=O)[nH]1` [Compound 58, (R)-2-(trans-4-aminocyclohexyl)-6-((4,6-dimethyl-2-oxo-1,2-dihydropyridin-3-yl)methyl)-9-(furan-2-yl)-2,4-dimethyl-7,8-dihydro-[1,3]dioxolo[4,5-g]isoquinolin-5(6H)-one], for which the GI50 under setting [1] worked out at 28 nM.

Consider `COc1cc(C)[nH]c(=O)c1CN1CCc2c(C)c3c(c(C)c2C1=O)OC(C)(C12CCC(N(C)C)(CC1)CC2)O3` (stereo not drawn) [Compound 25, 2-(4-(dimethylamino)bicyclo[2.2.2]octan-1-yl)-6-((4-methoxy-6-methyl-2-oxo-1,2-dihydropyridin-3-yl)methyl)-2,4,9-trimethyl-7,8-dihydro[1,3]dioxolo[4,5-g]isoquinolin-5(6H)-one], for which, under setting [1], the GI50 came out at 14 nM.

Regarding `Cc1cc(C)c(CN2CCc3c(c(C)c4c(c3-c3cncs3)O[C@@](C)([C@H]3CC[C@H](N(C)C)CC3)O4)C2=O)c(=O)[nH]1` [Compound 53, (S)-6-((4,6-dimethyl-2-oxo-1,2-dihydropyridin-3-yl)methyl)-2-(trans-4-(dimethylamino)cyclohexyl)-2,4-dimethyl-9-(thiazol-5-yl)-7,8-dihydro-[1,3]dioxolo[4,5-g]isoquinolin-5(6H)-one], the GI50 under setting [1] is more than 1000 nM.

Turning to `Cc1cc(C)c(CN2CCc3c(Cl)c4c(c(C)c3C2=O)OC(C)(C23CCC(N(C)C)(CC2)CC3)O4)c(=O)[nH]1` (stereo not drawn) [Compound 1, 9-chloro-6-((4,6-dimethyl-2-oxo-1,2-dihydropyridin-3-yl)methyl)-2-(4-(dimethylamino)bicyclo[2.2.2]octan-1-yl)-2,4-dimethyl-7,8-dihydro-[1,3]dioxolo[4,5-g]isoquinolin-5(6H)-one], the GI50 under setting [1] was 10 to 100 nM.

As for `Cc1cc(C)c(CN2CCc3c(Cl)c4c(c(C)c3C2=O)OC(C23CCC(N(C)C)(CC2)CC3)O4)c(=O)[nH]1` (stereo not drawn) [Compound 29, 9-chloro-6-((4,6-dimethyl-2-oxo-1,2-dihydropyridin-3-yl)methyl)-2-(4-(dimethylamino)bicyclo[2.2.2]octan-1-yl)-4-methyl-7,8-dihydro-[1,3]dioxolo[4,5-g]isoquinolin-5(6H)-one], the GI50 under setting [1] amounted to 36 nM.

For the compound `CCCc1cc(C)[nH]c(=O)c1CN1CCc2c(C)c3c(c(C)c2C1=O)OC(C)(C12CCC(N(C)C)(CC1)CC2)O3` (stereo not drawn) [Compound 26, 2-(4-(dimethylamino)bicyclo[2.2.2]octan-1-yl)-2,4,9-trimethyl-6-((6-methyl-2-oxo-4-propyl-1,2-dihydropyridin-3-yl)methyl)-7,8-dihydro[1,3]dioxolo[4,5-g]isoquinolin-5(6H)-one], under setting [1], the GI50 is 46 nM.

Regarding `Cc1cc(C)c(CN2CCc3c(c(C)c4c(c3-c3ccsc3)O[C@@](C)([C@H]3CC[C@H](N(C)C)CC3)O4)C2=O)c(=O)[nH]1` [Compound 51, (S)-6-((4,6-dimethyl-2-oxo-1,2-dihydropyridin-3-yl)methyl)-2-(trans-4-(dimethylamino)cyclohexyl)-2,4-dimethyl-9-(thiophen-3-yl)-7,8-dihydro-[1,3]dioxolo[4,5-g]isoquinolin-5(6H)-one], the GI50 under setting [1] is more than 1000 nM.

With `Cc1cc(C)c(CN2CCc3c(c(C)c4c(c3-c3ccc(C)s3)O[C@@](C)([C@H]3CC[C@H](N(C)C)CC3)O4)C2=O)c(=O)[nH]1` [Compound 43, (S)-6-((4,6-dimethyl-2-oxo-1,2-dihydropyridin-3-yl)methyl)-2-(trans-4-(dimethylamino)cyclohexyl)-2,4-dimethyl-9-(5-methylthiophen-2-yl)-7,8-dihydro-[1,3]dioxolo[4,5-g]isoquinolin-5(6H)-one], the GI50 under setting [1] was more than 1000 nM.

With `Cc1cc(C)c(CN2CCc3c(c(C)c4c(c3-c3ccc(F)nc3)O[C@](C)([C@H]3CC[C@H](N(C)C)CC3)O4)C2=O)c(=O)[nH]1` [Compound 36, (R)-6-((4,6-dimethyl-2-oxo-1,2-dihydropyridin-3-yl)methyl)-2-(trans-4-(dimethylamino)cyclohexyl)-9-(6-fluoropyridin-3-yl)-2,4-dimethyl-7,8-dihydro-[1,3]dioxolo[4,5-g]isoquinolin-5(6H)-one], the GI50 under setting [1] is 5.8 nM.

For `Cc1cc(C)c(CN2CCc3c(c(C)c4c(c3-c3ccco3)O[C@@](C)([C@H]3CC[C@H](N(C)C)CC3)O4)C2=O)c(=O)[nH]1` [Compound 31, (S)-6-((4,6-dimethyl-2-oxo-1,2-dihydropyridin-3-yl)methyl)-2-(trans-4-(dimethylamino)cyclohexyl)-9-(furan-2-yl)-2,4-dimethyl-7,8-dihydro-[1,3]dioxolo[4,5-g]isoquinolin-5(6H)-one], under setting [1], the GI50 is more than 1000 nM.

For the compound `Cc1cc(C)c(CN2CCc3cc4c(c(C)c3C2=O)OC(C)(C23CCC(N(C)C)(CC2)CC3)O4)c(=O)[nH]1` (stereo not drawn) [Compound 14, 6-((4,6-dimethyl-2-oxo-1,2-dihydropyridin-3-yl)methyl)-2-(4-(dimethylamino)bicyclo[2.2.2]octan-1-yl)-2,4-dimethyl-7,8-dihydro-[1,3]dioxolo[4,5-g]isoquinolin-5(6H)-one], the GI50 under setting [1] was determined as 45 nM.
